Patent EP0537980A1, “Cyclohexaneacetic acid derivatives as inhibitors of fibrinogen-dependent blood platelet aggregation” (GLAXO GROUP LIMITED, priority 1991, dated 1993)
Where a name gives a salt, the structure may show the parent alone.

Test system: human gel filtered platelets (GFP)
Assay: Inhibition of ADP-induced, fibrinogen-dependent blood platelet aggregation in human gel filtered platelets (GFP)
Type: cell-based
Conditions: fibrinogen 0.5mg/ml, compounds incubated 5 minutes at 37°C, ADP 1 x 10⁻⁵M, concentration required to produce 50% inhibition of platelet aggregation, read-out: IC₅₀
Procedure: Inhibition of blood platelet aggregation by compounds of the invention was determined according to the following procedure. Citrated whole blood (1 part 3.8% trisodium citrate: 9 parts blood) was obtained from human volunteers, free of medication for at least 10 days prior to collection. The blood was incubated with 0.1mM aspirin and 0.05µM prostacyclin and then centrifuged at 1000g for 4 minutes (20°C). The supernatant platelet rich plasma (PRP) was further centrifuged at 1300g for 10 minutes (20°C) to sediment the platelets. The supernatant was discarded and the pellet washed with a physiological salt solution (HEPES 5mM, NaHCO₃ 12mM, NaCl 140mM, KH₂PO₄ 0.74mM, D-Glucose 5.6mM, KCl 2.82mM and BSA 20g/l, pH 7.4) to remove residual plasma. After washing, the pellet was resuspended in physiological salt solution and then applied to a sepharose CL-2B column, pre-equilibrated with physiological salt solution at room temperature. The platelets (GFP) eluted within the void volume and were diluted to approximately 300,000 platelets/µl in buffer. Purified human fibrinogen (Knight L.C. et al, 1981 Thromb. Haemostasis, 46(3), 593-596) was added to a final concentration of 0.5mg/ml together with Ca2+ and Mg2+ at 1mM and 0.5mM respectively. […] The potency of the compounds may be expressed as an IC₅₀ value, defined as the concentration of compound required to produce 50% inhibition of platelet aggregation.

In the case of `N=C(N)c1ccc(N2CCN(C3CCC(O)(CC(=O)O)CC3)CC2)c(Br)c1` (stereo not drawn) [Example 2, cis-4-[4-[4-(Aminoiminomethyl)-2-bromophenyl]-1-piperazinyl]-1-hydroxycyclohexaneacetic acid, trifluoroacetate salt], the IC50 is reported as 945 nM.
`N=C(N)c1ncc(N2CCN(C3CCC(O)(CC(=O)O)CC3)CC2)cn1` (stereo not drawn) [Example 3, cis-4-[4-[2-(Aminoiminomethyl)-5-pyrimidinyl]-1-piperazinyl]-1-hydroxycyclohexaneacetic acid, trifluoroacetate salt] gave an IC50 of 543 nM.
Work on `N=C(N)c1ccc(C2CCN(C3CCC(O)(CC(=O)O)CC3)CC2)cc1` (stereo not drawn) [Example 4, cis-4-[4-[4-(Aminoiminomethyl)phenyl]-1-piperidinyl]-1-hydroxycyclohexaneacetic acid, trifluoroacetate salt] yielded an IC50 of 13 nM.
Compound `N=C(N)c1ccc(N2CCN([C@H]3CC[C@@](O)(CC(=O)O)CC3)CC2)cn1` [Example 5, cis-4-[4-[2-(Aminoiminomethyl)-5-pyridinyl]-1-piperazinyl]-1-hydroxycyclohexaneacetic acid, trifluoroacetate salt] has an IC50 of 220 nM.
`N=C(N)c1ccc(N2CCN(C3CCC(O)(CC(=O)O)CC3)CC2)c(-c2ccccc2)c1` (centres unmarked) [Example 6, trifluoroacetate salt] was tested, and the IC50 was 1550 nM.
